In patent US8344158B2, “Fluorescent polymethine cyanine dyes” (Washington University, priority 2007, dated 2013):

Assays:
[1] = UV-Vis absorption spectroscopy; type: physicochemical; conditions: for ε / λmax: in 25% aqueous DMSO
Description: UV-Vis and Fluorescent Spectroscopic Analysis. Stock solutions (3.0 mM) of the dye and its conjugates were prepared by dissolving them in DMSO. […] The molar extinction coefficient was obtained using Beer's law at 0.1-0.6 μM concentration of the dye. […]

[2] = Fluorescence spectroscopy (emission, relative quantum yield, brightness); type: physicochemical; conditions: for ΦF, relative fluorescence quantum yield: MeOH, ICG as standard; for λmax, em: in methanol (Table 1); for ΦB, relative brightness referenced to ICG: product of quantum yield and molar absorptivity, ICG = 1
Description: UV-Vis and Fluorescent Spectroscopic Analysis. Stock solutions (3.0 mM) of the dye and its conjugates were prepared by dissolving them in DMSO. […] The molar extinction coefficient was obtained using Beer's law at 0.1-0.6 μM concentration of the dye. The relative fluorescence quantum yield was determined using the equation: ΦF(x)=(As/Ax)(Fx/Fs)(nx/ns)^2ΦF(s)
where ΦF(X) is the fluorescence quantum yield, A is the absorbance, F is the area under the emission curve, n is the refractive index of the solvents used in measurement, and the subscripts s and x represent the standard and unknown, respectively. Indocyanine green (ICG) was used as a reference standard.

SMILES	λmax, abs [1]	ε [1]	λmax [1]	ΦF, relative fluorescence quantum yield [2]	λmax, em [2]	ΦB, relative brightness referenced to ICG [2]	ε (molar absorptivity) [1]
CC1(C)C(=CC=C2CCCC(C=CC3=[N+](CCCS(=O)(=O)[O-])c4ccc5ccccc5c4C3(C)C)=C2c2ccc(C(=O)O)cc2)N(CCCS(=O)(=O)[O-])c2ccc3ccccc3c21.[Na+] [Dye 2a]	800 nm	240 000 M^−1 cm^−1	800 nm	0.088	811 nm	1.3	–
CC1(C)C(=CC=C2CCCC(C=CC3=[N+](CCCCS(=O)(=O)[O-])c4ccc5ccccc5c4C3(C)C)=C2c2ccc(C(=O)O)cc2)N(CCCCS(=O)(=O)[O-])c2ccc3ccccc3c21.[Na+] [Dye 2b]	800 nm	240 000 M^−1 cm^−1	800 nm	0.092	811 nm	1.4	–
CC1(C)C(=CC=C2CCCC(C=CC3=[N+](CCCCS(=O)(=O)[O-])c4ccc(S(=O)(=O)[O-])cc4C3(C)C)=C2c2ccc(C(=O)O)cc2)N(CCCCS(=O)(=O)[O-])c2ccc(S(=O)(=O)[O-])cc21.[Na+].[Na+].[Na+] [Dye 2c]	770 nm	220 000 M^−1 cm^−1	770 nm	0.10	785 nm	1.4	–
CC1(C)C(/C=C/C=C/C=C/C=C2\N(CCCCS(=O)(=O)O)c3ccc4ccccc4c3C2(C)C)=[N+](CCCCS(=O)(=O)[O-])c2ccc3ccccc3c21 [ICG, indocyanine green, reference compound]	785 nm	–	–	–	807 nm	1	204000 M⁻¹ cm⁻¹
